Results taken from US5656736A, “Compound UCH9” (Kyowa Hakko Kogyo Co., Ltd., priority 1993, dated 1997).
Converted amounts (≈) assume the structure as drawn. Where a name gives a salt, the structure may show the parent alone.

Tests used:
[1] = Solubility; assay type: physicochemical
[2] = test system: Enterococcus faecium ATCC 10541; test: Antibacterial activity, agar dilution method (MIC); assay type: cell-based; conditions: ATCC10541, pH 7
Method: (§1) The minimum inhibitory concentration (MIC) of the compound obtained in Example 1 against the growth of various bacteria is shown in Table 1.
(§2) The antibacterial activity was determined by the agar dilution method using a medium (pH 7) which comprises 3 g/l Bacto-tryptone (Difco Laboratories),3 g/l meat extract, 1 g/l yeast extract, 1 g/l glucose and 16 g/l agar.

[3] = test system: Bacillus subtilis No. 10707; test: Antibacterial activity, agar dilution method (MIC); assay type: cell-based; conditions: pH 7
Method: as §1, §2

[4] = test system: Staphylococcus aureus ATCC 6538P; test: Antibacterial activity, agar dilution method (MIC); assay type: cell-based; conditions: ATCC6538P, pH 7
Method: as §1, §2

[5] = test system: HeLa S3 cells (ATCC HTB22); test: Growth inhibition against HeLa S3 cells (Neutral Red staining); assay type: cell-based; conditions: Homo sapiens, 72 hours, 37° C.
Method: HeLa S3 cells (ATCC HTB22) were suspended in a medium comprising 10% fetal calf serum, 2 mM glutamine and MEM medium (Nippon Pharmaceutical Co., Ltd.) (hereinafter referred to as medium A) to a concentration of 3×10^4 cells/mi. The cell suspension was put into wells of a 96-well microtiter plate in an amount of 0.1 ml per well. The cells in the plate were cultured at 37° C. for 20 hours in a CO2 -incubator. Subsequently, the test compound obtained in Example 1 which was appropriately diluted with medium A was added to the wells in an amount of 0.1 ml/well. The cells were further cultured at 37° C. for 72 hours in the CO2 -incubator, and then the culture supernatant was removed. To the residue was added a medium comprising medium A and 0.02% Neutral Red in an amount of 0.1 ml per well, followed by culturing at 37° C. for one hour in the CO2 -incubator, whereby the cells were stained. After removal of the culture supernatant, the residue was washed once with physiological saline. The pigment was extracted with 0.001N hydrochloric acid/30% ethanol, and the absorbance at 550 nm was measured by using a microplate reader. The concentration of the test compound at which the growth of the cells is inhibited by 50% (IC50) was calculated by comparing the absorbance of untreated cells with those of the cells treated with the test compound at known concentrations.

Structure (SMILES) | Solubility ([1]; chloroform) | Solubility ([1]; dimethylsulfoxide (DMSO)) | Solubility ([1]; methanol) | Solubility ([1]; water) | MIC [2] | MIC [3] | MIC [4] | IC50 [5]
CCC(C)c1c(OC2CC(O)C(O)C(C)O2)cc2cc3c(c(O)c2c1O)C(=O)C(OC1CC(OC2CC(OC4CC(OC5CC(OC)C(O)C(C)O5)C(O)C(C)O4)C(O)C(C)O2)C(O)C(C)O1)C(C(OC)C(=O)C(O)C(C)O)C3 (centres unmarked) [UCH9·1/2 magnesium salt] | sparingly soluble | Soluble | Soluble | sparingly soluble |  |  |  | 
CCC(C)c1c(OC2CC(O)C(O)C(C)O2)cc2cc3c(c(O)c2c1O)C(=O)C(OC1CC(OC2CC(OC4CC(OC5CC(OC)C(O)C(C)O5)C(O)C(C)O4)C(O)C(C)O2)C(O)C(C)O1)C(C(OC)C(=O)C(O)C(C)O)C3 (centres unmarked) [UCH9] |  |  |  |  | 41.6 µg/mL (≈ 36.9 µM) | 0.04 µg/mL (≈ 0.0355 µM) | 5.2 µg/mL (≈ 4.61 µM) | 0.015 µg/mL (≈ 0.0133 µM)
